Values quoted from earlier work, collected in US20240156825A1, “USE OF SELECTIVE VEGFR2 AND FGFR1 INHIBITORS” (Fountain Therapeutics Inc., priority 2022, published 2024).

System: any gene target
Conditions: Table 2; lowest reported IC50 to any gene target; read-out: Min IC50_μM; cited from earlier work

| SMILES | IC50 |
| --- | --- |
| COc1cc(OC)cc(N(CCCN2CCC[C@H]2C)c2ccc3ncc(-c4cnn(C)c4)nc3c2)c1 [compound 134146811] | 2.14 nM |
| COc1cc(CCc2cc(NC(=O)c3ccc(N4C[C@@H](C)N[C@@H](C)C4)cc3)n[nH]2)cc(OC)c1 [compound 51039095] | 0.4 nM |
| COc1cc(OC)cc(N(CCCN2C[C@@H](C)O[C@@H](C)C2)c2ccc3ncc(-c4cnn(C)c4)nc3c2)c1 [compound 89447204] | 3.55 nM |
| COc1cc(OC)cc(N(CCCN2CCC(F)(F)C2)c2ccc3ncc(-c4cn[nH]c4)nc3c2)c1 [compound 134142457] | 10.5 nM |
| COc1cc(OC)cc(N(CC#Cc2cc(C(N)=O)ccn2)c2ccc3ncc(-c4cnn(C)c4)nc3c2)c1 [compound 89447328] | 2.46 nM |
| COc1cc(OC)cc(N(CCNC(C)C)c2ccc3ncc(-c4cnn(C)c4C)nc3c2)c1 [compound 68209154] | 4.68 nM |
| COc1cc(F)cc(N(CCNC(C)C)c2ccc3ncc(-c4cn[nH]c4)nc3c2)c1 [compound 134153940] | 2.09 nM |
| COc1cc(OC)cc(N(CCN2CCCC2)c2ccc3ncc(-c4cnn(C)c4)nc3c2)c1 [compound 134156523] | 1.78 nM |
| C=CC(=O)N1CCN(CCCn2c(=O)c(-c3c(Cl)c(OC)cc(OC)c3Cl)cc3cnc(NC)nc32)CC1 [compound 118295624] | 1.3 nM |
| COc1cc(OC)cc(N(CCN(C)C(C)C)c2ccc3ncc(-c4cnn(C)c4)nc3c2)c1 [compound 68209043] | 3.89 nM |
| CCn1cc(-c2cnc3ccc(N(CCNC)c4cc(OC)cc(OC)c4)cc3n2)cn1 [compound 68208927] | 3.55 nM |
| COc1cc(OC)cc(N(CCCN2CCC(N)C2)c2ccc3ncc(-c4cnn(C)c4)nc3c2)c1 (stereo not drawn) [compound 68209028] | 1.41 nM |
| COc1cccnc1C#CCN(c1ccc2ncc(-c3cnn(C)c3)nc2c1)c1c(Cl)c(OC)cc(OC)c1Cl [compound 89447340] | 5.89 nM |
| COc1cc(OC)cc(N(CCNC(C)C)c2ccc3ncc(-c4cnn(C)c4)nc3c2)c1 [compound 89447047] | 1.74 nM |
| COc1cc(OC)cc(N(CCN2CCCC2)c2ccc3ncc(-c4cn[nH]c4)nc3c2)c1 [compound 134153401] | 2.46 nM |
| COc1cc(OC)cc(N(CCCN2[C@H](C)CC[C@@H]2C)c2ccc3ncc(-c4cnn(C)c4)nc3c2)c1 [compound 134135888] | 2.51 nM |
| COc1cc(OC)cc(N(CC#Cc2cccc(CO)n2)c2ccc3ncc(-c4cnn(C)c4)nc3c2)c1 [compound 68208920] | 46.8 nM |
| COc1cc(OC)cc(N(CCN2CCCCC2)c2ccc3ncc(-c4cnn(C)c4)nc3c2)c1 [compound 68209029] | 2.24 nM |

| SMILES | IC50 |
| --- | --- |
| COc1cc(OC)cc(N(CCNC(C)C)c2ccc3ncc(-c4cn[nH]c4)nc3c2)c1 [compound 134157816] | 2.82 nM |
| COc1cc(OC)c(C)c(N(CCCN2CCCC2)c2ccc3ncc(-c4cnn(C)c4)nc3c2)c1 [compound 134145340] | 3.55 nM |
| CNCCN(c1cc(OC)cc(OC)c1)c1ccc2ncc(-c3cnn(CC(=O)NC)c3)nc2c1 [compound 68208748] | 2.57 nM |
| CNCCN(c1cc(OC)cc(OC)c1)c1ccc2ncc(-c3cnn(CC(=O)NC)c3)nc2c1 [compound 134131862] | 2.4 nM |
| CNC(=O)Cn1cc(-c2cnc3ccc(N(CCNC(C)C)c4cc(OC)cc(OC)c4)cc3n2)cn1 [compound 134132789] | 3.39 nM |
| COc1cc(OC)c(Cl)c(N(CCNC(C)C)c2ccc3ncc(-c4cnn(C)c4)nc3c2)c1Cl [compound 88888615] | 9.12 nM |
| C[C@@H](Oc1ccc2[nH]nc(/C=C/c3cnn(CCO)c3)c2c1)c1c(Cl)cncc1Cl [compound 46944259] | 2.6 nM |
| COc1cc(OC)cc(N(CC#Cc2nccnc2Cl)c2ccc3ncc(-c4cnn(C)c4)nc3c2)c1 [compound 89447345] | 15.8 nM |
| COc1cc(OC)cc(N(CCNCC2CC2)c2ccc3ncc(-c4cnn(C)c4)nc3c2)c1 [compound 68208778] | 3.02 nM |
| COc1cc(OC)cc(N(CCNC(C)C)c2ccc3ncc(-c4cnn(C)c4)nc3c2)c1 [compound 118014709] | 2.29 nM |
| COc1cc(OC)cc(N(CC#Cc2cc(N)ccn2)c2ccc3ncc(-c4cnn(C)c4)nc3c2)c1 [compound 89447499] | 2.95 nM |
| COc1cc(OC)cc(N(CCCN2CCC(N3C[C@@H](C)O[C@@H](C)C3)C2)c2ccc3ncc(-c4cnn(C)c4)nc3c2)c1 (stereo partly drawn) [compound 134155786] | 4.57 nM |
| COc1cc(OC)cc(N(CCNC(C)C)c2ccc3ncc(-c4cnn(C5CCNCC5)c4)nc3c2)c1 [compound 68208989] | 2.88 nM |
| COc1cc(OC)cc(N(CC#Cc2cc(CO)ccn2)c2ccc3ncc(-c4cnn(C)c4)nc3c2)c1 [compound 89447343] | 3.39 nM |
| COc1cc(OC)cc(N(C[C@@H]2CCCN2)c2ccc3ncc(-c4cnn(C)c4)nc3c2)c1 [compound 68208803] | 3.16 nM |
| COc1cc(OC)cc(N(Cc2ncccn2)c2ccc3ncc(-c4cnn(C)c4)nc3c2)c1 [compound 68208969] | 8.13 nM |
| COc1cc(OC)cc(N(CCCN2CCCC2)c2ccc3ncc(-c4cnn(CCO)c4)nc3c2)c1 [compound 134144550] | 1.91 nM |

Same assay, conditions: lowest reported IC50 to any gene target; read-out: Min IC50_μM; cited from earlier work

| SMILES | IC50 |
| --- | --- |
| CC(C)(C)NC(=O)Nc1ccc2[nH]nc(-c3nc4ccc(N5CCC(N6CCCCC6)CC5)cc4[nH]3)c2c1 [compound 135819982] | 1 nM |
| COc1cc(OC)cc(N(CCCN2CCCC2(C)C)c2ccc3ncc(-c4cnn(C)c4)nc3c2)c1 [compound 134151320] | 1.91 nM |
| CCOC(=O)C1CCN(CCN(c2cc(OC)cc(OC)c2)c2ccc3ncc(-c4cnn(C)c4)nc3c2)CC1 [compound 68209310] | 3.39 nM |
| COc1cc(OC)cc(N(CC#Cc2cnccn2)c2ccc3ncc(-c4cnn(C)c4)nc3c2)c1 [compound 89447472] | 17.8 nM |
| CNCC(O)CN(c1cc(OC)cc(OC)c1)c1ccc2ncc(-c3cnn(C)c3)nc2c1 (stereo not drawn) [compound 134149546] | 2.82 nM |
| CNC[C@H](O)CN(c1cc(OC)cc(OC)c1)c1ccc2ncc(-c3cnn(C)c3)nc2c1 [compound 68209125] | 1.78 nM |
| COc1cc(OC)cc(N(CCN2CCC(C(C)(C)O)CC2)c2ccc3ncc(-c4cnn(C)c4)nc3c2)c1 [compound 68209085] | 3.89 nM |
| COc1cc(OC)cc(N(CCN2CCC(O)C2)c2ccc3ncc(-c4cnn(C)c4)nc3c2)c1 (stereo not drawn) [compound 134154939] | 1.82 nM |
| COc1cc(OC)cc(N(CCCN2[C@H](C)CC[C@@H]2C)c2ccc3ncc(-c4cnn(C)c4)nc3c2)c1 [compound 89447423] | 3.24 nM |
| COc1cc(OC)cc(N(CC#Cc2cc(C)ccn2)c2ccc3ncc(-c4cnn(C)c4)nc3c2)c1 [compound 67466880] | 9.33 nM |
| COc1cc(OC)cc(N(CCN2CCC(N(C)C)CC2)c2ccc3ncc(-c4cnn(C)c4)nc3c2)c1 [compound 68209057] | 5.13 nM |
| COc1cc(OC)cc(N(CCCc2cc(C)ccn2)c2ccc3ncc(-c4cnn(C)c4)nc3c2)c1 [compound 68208924] | 10.7 nM |
| COc1cc(OC)cc(-c2cc3cnc(N)nc3n(C)c2=O)c1 [compound 44294299] | 126 nM |
| COc1cc(OC)cc(-c2cc3cnc(NCCCCCN4CCOCC4)cc3nc2NC(=O)NC(C)(C)C)c1 [compound 5330134] | 0.5 nM |

Same assay, conditions: next lowest IC50 value to any gene target; Table 3; read-out: Min IC50_μM; cited from earlier work

| SMILES | IC50 |
| --- | --- |
| COc1cc2c(Nc3ccc(Cl)c(Cl)c3F)ncnc2cc1OC[C@@H]1CN2CCCC[C@H]2C(=O)N1 [compound 57802612] | 50 nM |

Same assay, conditions: next lowest IC50 value to any gene target; read-out: Min IC50_μM; cited from earlier work

| SMILES | IC50 |
| --- | --- |
| CC(C)n1nc(-c2ccc3cc(O)ccc3c2)c2c(N)ncnc21 [compound 135947979] | 20 nM |
| COc1cc2ncnc(Oc3ccc4c(C(N)=O)cccc4c3)c2cc1OC [compound 24823094] | 680 nM |
| C[C@@H](Nc1ncnc2[nH]c(-c3ccc(CNCCCCCCCC(=O)NO)cc3)cc12)c1ccccc1 [compound 24900644] | 100 nM |
| c1ccc(-c2cnc3cncc(Nc4ccc(N5CCCCC5)cc4)c3n2)cc1 [compound 57332840] | 2020 nM |
| CCNC(=O)Nc1ccc(Oc2ncnc(N)c2/C=N/OC)cc1Cl [compound 16742063] | 183 nM |
| COc1cc2nccc(Oc3ccc4c(C(=O)NC5CC5)cccc4c3)c2cc1OC [compound 11441375] | 27 nM |
| Clc1ccc(Nc2nnc(Cc3ccncc3)c3ccccc23)cc1 [compound 151194] | 54 nM |
| CCNC(=O)c1cccc2cc(Oc3ccnc4cc(OC)c(OC)cc34)ccc12 [compound 11486459] | 46 nM |
| COc1ccc(-c2ccc(NC(=O)Nc3cc(C)ccc3F)cc2)c2c(N)noc12 [compound 11429654] | 24 nM |
| CNC(=O)c1cc(Oc2ccc(NC(=O)Nc3ccc(Cl)c(C(F)(F)F)c3)cc2)ccn1 [compound 216239] | 0.2 nM |
| COc1ccc2c(Oc3ccc4c(C(N)=O)cccc4c3)ccnc2c1 [compound 24823095] | 130 nM |
| CCN(Cc1ccccc1)c1nc(O)nc(Nc2ccc3ncsc3c2)n1 [compound 135509841] | 400 nM |
| COc1cc2nccc(Oc3ccc4c(C(=O)Nc5ccc(Cl)cc5)cccc4c3)c2cc1OC [compound 24757938] | 0.5 nM |
| COc1ccc(-c2ccc(NC(=O)Nc3cccc(Cl)c3)cc2)c2c(N)noc12 [compound 11429729] | 30 nM |
| Cc1n[nH]c2sc(C(N)=O)c(NC(=O)c3ccccc3Cl)c12 [compound 44405999] | 9000 nM |
| Clc1ccc(Nc2nnc(Cc3ccncc3)c3ccccc23)cc1 [compound 151193] | 77 nM |
| COc1ccc(-c2cnc3c(-c4cn[nH]c4)cnn3c2)cc1 [compound 57339386] | 16 nM |
| COc1cc2nccc(Oc3ccc(NC(=O)NC4CC4)c(Cl)c3)c2cc1C(N)=O [compound 9823820] | 5.2 nM |
| O=C(Nc1ccc(Cl)cc1)c1ccccc1NCc1ccncc1 [compound 9797919] | 180 nM |
| COc1ccc(-c2ccc(NC(=O)Nc3cccc(C(F)(F)F)c3)cc2)c2c(N)noc12 [compound 11374110] | 16 nM |
| COc1cc2c(Nc3ccc(Br)cc3F)ncnc2cc1OCC1CCN(C)CC1 [compound 3081361] | 11 nM |
| COc1cc2nccc(Oc3ccc(NC(=O)C4(C(=O)Nc5ccc(F)cc5)CC4)cc3)c2cc1OC [compound 25102847] | 1.3 nM |
